Assay results: a melting point compilation (Tetko et al.; mined from patent text by program, amines drawn as free bases though some values may be those of a salt)

Row | SMILES | melting point
1 | Cc1ccc(-c2cnc(-c3cc(C(F)(F)F)cc(C(F)(F)F)c3)s2)s1 | 120 to 121 °C
2 | Cc1nc(Cl)c(C#N)nc1C | 83 to 85 °C
3 | COc1ccc2c(c1)-c1c(cc(C)n1C[C@@H](C)O)C2 | 110 °C
4 | Cn1cncc1C(O)(c1ccc(CO)cc1)c1ccc2c(c1)c(-c1cccc(Cl)c1)cc(=O)n2C (stereo unspecified) | 273 °C
5 | CC12C=CC(C)(CC(=O)C1)O2 | 62 to 63 °C
6 | COC(=O)CCCCCCCNC(=O)C(CO)NS(=O)(=O)c1ccc(Cl)cc1 (racemic) | 88 to 92 °C
7 | COc1cc(C(=O)O)ccc1CN1CCOc2ccc(NC(=O)CC3CCCC3)cc21 | 224 to 225 °C
8 | CSC(=S)C12CC3CC(CC(C3)C1)C2 | 64.5 to 66 °C
9 | COC1CC2CC(OC(=O)c3ccccc3)CCC2(C)C2CCC3(C)C(=C12)C(O)CC3C(C)CCCC(C)C (stereo unspecified) | 182 to 183 °C
10 | CN1C(=O)Cc2ccc(F)cc21 | 100 to 101 °C
11 | CC(=O)OC1C(C)OC(n2cc(F)c(=O)[nH]c2=O)C1OC(C)=O (stereo unspecified) | 176 to 177 °C
12 | CON(C)C(=O)c1cc(Br)cc([N+](=O)[O-])c1N | 129 °C
13 | CCc1ccc2c(c1)C=Cc1oc(C)nc1C2c1cn(Cc2nc(C(=O)O)co2)c(=O)[nH]c1=S (stereo unspecified) | 210 °C
14 | CCc1cc(Cl)c(S(C)(=O)=O)cc1C(=O)O | 180 to 183 °C
15 | CN(C)CCOc1ccc2[nH]c(C(=O)N3CC(CCl)c4c3cc([N+](=O)[O-])c3cc(S(C)(=O)=O)ccc43)cc2c1 (stereo unspecified) | 250 to 252 °C
16 | Cn1nc(C#N)c(Nc2ccc(Cl)cc2[N+](=O)[O-])n1 | 166 to 168 °C
17 | Cc1ccc(C(=O)Nc2c(NC(=O)CN3CCN(c4ccccc4F)CC3)ccc3c2C(=O)c2ccccc2C3=O)cc1 | 228 to 229 °C
18 | Nc1ncc2ncn([C@@H]3C[C@H](O)[C@@H](O)[C@H]3O)c2n1 (racemic) | 153 to 155 °C
19 | CCCCCCCCCCCCCCCCCCC1CNCCNCCNCCNCCN1 (stereo unspecified) | 99 to 100 °C
20 | NC(=O)C1CCN(Cc2cnc3cc(NC(=O)c4ccc(-c5ccc(Cl)cc5)cc4)ccc3c2)CC1 | 260 °C
21 | O=C(CBr)CS(=O)(=O)C(c1ccc(Cl)cc1)c1ccc(Cl)cc1 | 122 to 123 °C
22 | Cc1ccc(S(=O)(=O)Nc2cc(CC(C)C)c([N+](=O)[O-])cc2Br)cc1 | 170 °C
23 | CCOC(=O)C1=C(C)NC(c2cncs2)=NC1c1ccc(F)cc1Cl (stereo unspecified) | 121 to 125 °C

Row | SMILES | melting point
24 | CN1CCN(CCCNc2ncc3cc(-c4c(Cl)cccc4Cl)c(NC(=O)Nc4ccc(Cl)cc4)nc3n2)CC1 | 176 to 181 °C
25 | CS(=O)(=O)Nc1ccc(CC#N)c2cn[nH]c12 | 223 to 225 °C
26 | C=C1CC2C(CCC3(C)C2CCC3(O)C(C)=O)C2(C)CCC(=O)C=C12 (stereo unspecified) | 218 to 220 °C
27 | Cc1nsc2ccc([N+](=O)[O-])cc12 | 124 to 125 °C
28 | COc1ccc(S(N)(=O)=O)cc1C(=O)C(C)N=[N+]=[N-] (stereo unspecified) | 113 to 114 °C
29 | Cc1[nH]c(=O)[nH]c1C(=O)C1CC1 | 272 to 273 °C
30 | CC1(C)C(=O)N(c2ccc(C#N)c(C(F)(F)F)c2)C(=O)N1CCCCOCc1ccccc1 | 75 to 76 °C
31 | Cc1c(C2=NNC(=O)SC2C)ccc2c1C(C)(C)C(=O)N2 (stereo unspecified) | 279 °C
32 | Cn1nc(Sc2cc(C(F)(F)F)ccc2C#N)n(C)c1=O | 113 °C
33 | CCOC(=O)C1(F)C(=O)NC(=O)NC1ON=C1CCC1 (stereo unspecified) | 188 to 189 °C
34 | OC(Cn1cncn1)(OCCOc1ccc(Cl)cc1Cl)c1ccc(Cl)cc1Cl (stereo unspecified) | 88 to 90 °C
35 | CCc1nc2c(N)nc3cc(CCC(=O)N4CCSC4)ccc3c2n1CC(C)(C)O | 210 to 212 °C
36 | CC(=O)N1CCn2c(CN3CCOCC3)ccc2C1 | 117 to 118 °C
37 | O=C(Nc1ccc(Cl)nc1)c1ccc(-n2ccnc2)c(F)c1 | 210 to 211 °C
38 | COc1ccc(C(CCN(C)C)c2ncc[nH]2)cc1 (stereo unspecified) | 131 to 133 °C
39 | COc1ccc(CNC(=O)n2cc(F)c(=O)[nH]c2=O)c(OC)c1OC | 159 °C
40 | OCc1cc2cc(Br)ccc2[nH]1 | 111 to 112 °C
41 | c1ccc(CC2CNCCN2)cc1 (racemic) | 80 to 81 °C
42 | CCCCCCCCCCCCCCOc1ccc(C(=O)Oc2ccc(-c3ncc(C(=O)O[C@@H](C)CCCCCC)cn3)cc2)cc1 | 85.4 °C
43 | Oc1ccc2c(c1O)OCC(c1cccc(C(F)(F)F)c1)C2 (stereo unspecified) | 99 to 100 °C
44 | Clc1cnn(-c2ccc(CBr)c(Cl)c2)c1 | 77 to 78 °C
45 | C=C(c1ccc(C(C)C)cc1)c1c(C)c(NC(=O)CCCC)c(C)c2c1OCC2 | 172 to 173 °C
46 | CC(C)(C)n1ncc(OCc2ccc(OC(F)(F)C(F)OC(F)(F)F)cc2)c(Cl)c1=O (stereo unspecified) | 68 to 69 °C

Row | SMILES | melting point
47 | CN1CCN(C(=O)OC2C3=C(SCCS3)C(=O)N2c2ccccn2)CC1 (stereo unspecified) | 145 °C
48 | COc1ccc2c3c1CCCN3C(C)(C)C=C2C | 87 to 88 °C
49 | O=c1oc(-c2ccc(-n3ccnc3)c(C(F)(F)F)c2)nn1Cc1cc(Cl)ccc1O | 178 to 180 °C
50 | COC(=O)CC1(C)Oc2ccc([N+](=O)[O-])cc2-n2c(Cl)ccc21 (stereo unspecified) | 124 to 125 °C
51 | CCCCC/C=C\C/C=C\CCCCCCCC(=O)Nc1cccc(N(CC(=O)O)CC(=O)O)c1 | 135 to 140 °C
52 | Cc1cc2cn[nH]c2c(C(=O)NC(C)C)c1NC(=O)c1cc(C(F)F)nn1-c1ncccc1Cl | 250 to 253 °C
53 | Cc1cc(C2=NOC(c3cc(Cl)cc(Cl)c3)(C(F)(F)F)C2)ccc1C(=O)NCC(F)(F)F (stereo unspecified) | 156 to 157 °C
54 | COc1c(N2CCC(N(C)C)C(C)C2)c(F)c(N)c2c(=O)c(C(=O)O)cn(C3CC3)c12 (stereo unspecified) | 210 °C
55 | CC(C)=CCCC(C)CCOCC(=O)c1cc(C(C)C)c(O)c(C(C)C)c1 (stereo unspecified) | 37 to 39 °C
56 | Cc1c(N)ccc2c1C(=O)NS2(=O)=O | 272 to 273 °C
57 | CCCCCCCc1cnc(N)s1 | 75 to 76 °C
58 | CC(C)N(CCC1(c2ccccc2)C(=O)NC(C)N2CCCCC21)C(C)C (stereo unspecified) | 142 to 145 °C
59 | O=C1CC(=O)N(c2ccccc2)c2cc(Cl)ccc2N1CC1CC1 | 215 to 218 °C
60 | COC(=O)c1cscc1NC(=O)COc1ccc(Br)cn1 | 138 to 140 °C
61 | CCOc1ccc(OCCCCCN2CCN(c3nccs3)CC2)cc1 | 79 to 81 °C
62 | CCCCc1cn(-c2c(C)cc(C(C)(C)C)cc2C)c(=O)n1Cc1ccc(-c2ccccc2-c2nnn[nH]2)cc1 | 134 to 135 °C
63 | CCCCCN1CC[C@@H](c2ccccc2Cl)[C@H](CO)C1 (racemic) | 101 to 102 °C
64 | CC1CC2=CC(=O)CCC2C2C(F)CC3(C)C(O)CCC3C12 (stereo unspecified) | 127 °C
65 | CCNc1cc(NS(=O)(=O)c2ccc(N)cc2)nc(NCC)n1 | 245 to 250 °C
66 | COc1cc(O)c2c(=O)c(OC)c(-c3ccc(O)c(OC)c3)oc2c1 | 171 to 173 °C
67 | Cc1cc(C)n(-c2nc(Nc3ccc(Cl)cc3)cnc2CN)n1 | 173 to 176 °C

Further lines, results first:

Row | melting point | SMILES
68 | 149 °C | Cc1ccc(Oc2ccc(C#CC(C)N(O)C(N)=O)o2)cn1 (stereo unspecified)
69 | 154 to 157 °C | COc1cc2c(cc1OC)[C@@H]1c3ccc(C)cc3C(=O)N(Cc3ccccc3)[C@H]1CC2 (relative stereo)
70 | 199 to 200 °C | NS(=O)(=O)c1cc2ccccc2n1S(=O)(=O)c1ccccc1
71 | 190 to 192 °C | O=c1[nH]c(-c2cccnc2O)nc2ccccc12
72 | 91 to 94 °C | CCCC(c1ccncc1)n1ccc2ccccc21 (stereo unspecified)
73 | 153 °C | N#Cc1ccc(C(O)(Cc2ccccc2)Cc2ccccc2)cc1
74 | 108 °C | CC(O)CNCC(O)COc1ccccc1C#N (stereo unspecified)
75 | 167 to 169 °C | NC(=NO)c1ccc(-c2ccc(Cl)cc2)o1
76 | 124 to 126 °C | OC(Cc1ccccc1Cl)(Cn1ccnc1S)C1(Cl)CC1 (stereo unspecified)
77 | 145 to 146 °C | COC(=O)c1ccc(CN2CCN(S(=O)(=O)c3ccccc3)CC2)cc1
78 | 98 to 100 °C | COC(=O)C(=O)c1ccccc1F
79 | 178 to 179 °C | N#Cc1cc(C(=O)NNC(=O)c2occ(-c3ccccc3)c2-c2ccccc2)ccc1O
80 | 81 to 82 °C | O=C(O)C(O)c1ccc(Cc2ccccc2)s1 (stereo unspecified)
81 | 270 to 274 °C | O=c1cc(-c2ccccc2)[nH]c2c(O)c(O)ccc12
82 | 152 to 156 °C | CC(=O)OC1C(Oc2cccc(O)c2C(=O)CCc2ccc3occc3c2)OC(CO)C(O)C1O (stereo unspecified)
83 | 164 °C | CC(=O)C(C)(C#N)c1ccc2c(c1)Cc1cccnc1O2 (stereo unspecified)
84 | 163 to 165 °C | COc1cn(-c2ccccc2F)nc(-c2ccnn2-c2ccccc2)c1=O

Row | melting point | SMILES
85 | 117 to 118 °C | CCOC(=O)C=Cc1cc([N+](=O)[O-])ccc1OCCCc1ccccc1
86 | 95 to 97 °C | CCC(Oc1ccc(Cl)c(C)c1)C(=O)NCc1ccccc1 (stereo unspecified)
87 | 184 °C | ON=C(c1ccc(F)cc1)c1cccc2nc(N[C@@H]3CCc4ccccc43)ccc12
88 | 154 to 156 °C | COCCc1c[nH]c(-c2ccc(OCc3ccccc3)cc2)n1
89 | 78 to 80 °C | CC/C(=C(\c1ccc(I)cc1)c1ccc(OCCCCCBr)cc1)c1ccccc1
90 | 128 to 129 °C | CCC(=O)NCC(CO)c1cccc2ccc(OC)cc12 (stereo unspecified)
91 | 177 to 179 °C | Cc1ccc(Sc2c(N)cc(C(=O)O)cc2SCc2ccccc2)cc1
92 | 168 to 170 °C | O=C1N(N2CCOCC2)c2ccccc2C1(O)Cc1ccccn1 (stereo unspecified)
93 | 39 to 40 °C | CCCCC(CNc1ncc(OC)c(C)n1)c1ccccc1 (stereo unspecified)
94 | 265 to 266 °C | NS(=O)(=O)c1ccc(-n2sc3cc(F)ccc3c2=O)cc1
95 | > 270 °C | COC(=O)c1sc2c(c1N)c1ccccc1c(=O)n2-c1ccccc1
96 | 129 to 131 °C | O=C1C(=Cn2ccnc2)C(c2ccccc2)Oc2ccccc21 (stereo unspecified)
97 | 164 to 166 °C | CCOC(=O)c1c(C)c(C(=O)C(C#N)C(=O)Nc2ccccc2)n(C)c1C (stereo unspecified)
98 | 163 to 164 °C | CCCCCCCCc1cc2cc(O)ccc2c(Oc2ccc(/C=C/C(=O)O)cc2)c1-c1ccccc1
99 | 85 to 86 °C | CCOC(=O)Cc1c(CCc2ccc(OC)cc2)oc2ccc(C#N)cc12
100 | 139 to 140 °C | O=C(O)c1ccccc1OCCN1CCC(c2cn(CCC3COCCO3)c3ccccc23)CC1 (stereo unspecified)
101 | 55 to 60 °C | Cc1sc(Cc2ccc(Br)cc2)c(C(=O)c2ccc(OS(=O)(=O)c3cnn(C)c3)c(C3CCCC3)c2)c1C
